Assay results as given in patent US9763572B2, “Quantitative pupillometry as a bedside predictor of postoperative respiratory depression” (Children's Hospital Medical Center, priority 2015, dated 2017).

Assays:
[1] = Blood morphine, M3G and M6G concentrations in the recovery room (LC-MS/MS) in children undergoing tonsillectomy; details: mean±SD
[2] = test system: children undergoing tonsillectomy; test: Postoperative respiratory depression and its association with ABCB1 genetic variants in children given morphine; details: per added copy of minor allele (G) of ABCB1 rs9282564; 263 children; 95% CI: 2.1-10.8, p=0.0002
pupil [3] = test: Serial quantitative pupillometry after intraoperative morphine in the pediatric study; format: in vivo, children
pupil [4] = details: used as prophylactic antiemetic; cited from earlier work
[5] = children who did not have respiratory depression with prolonged PACU stay
[6] = children who had respiratory depression and prolonged PACU stay due to respiratory depression

| SMILES | levels in the recovery room [1, 5] [ng/mL] | levels in the recovery room [1, 6] [ng/mL] | increase in odds of a prolonged hospital stay due to postoperative respiratory depression [2] [fold] | pupillary maximum constriction velocity (MCV) vs blood morphine concentration (pupil [3]; FIG. 3, perioperative time points) | pupillary measures (maximum and minimum pupillary sizes, constriction percentage, maximum constriction velocity) (pupil [3]; after intraoperative morphine bolus, under general anesthesia, FIGS. 2A-2D) | PACU pupillary measures compared to the baseline values (pupil [3]; recovery room (PACU) vs preoperative baseline) | interference with quantitative pupillometry responses (pupil [4]) |
| --- | --- | --- | --- | --- | --- | --- | --- |
| CN1CC[C@]23c4c5ccc(O)c4O[C@H]2[C@@H](O[C@@H]2O[C@H](C(=O)O)[C@@H](O)[C@H](O)[C@H]2O)C=C[C@H]3[C@H]1C5 [M6G, Morphine-6 Glucuronide] | 0.0117 ± 0.0071 | 0.0091 ± 0.0039 |  |  |  |  |  |
| CN1CC[C@]23c4c5ccc(O)c4O[C@H]2[C@@H](O)C=C[C@H]3[C@H]1C5 [morphine] | 8.4 ± 7.9 | 2.25 ± 2.3 | 4.7 | decreased as blood morphine concentration increased | incremental reductions in all these pupillary measures | residual depressive effects |  |
| Cc1nccn1CC1CCc2c(c3ccccc3n2C)C1=O (centres unmarked) [ondansetron] |  |  |  |  |  |  | does not interfere with quantitative pupillometry responses |
| CN1CC[C@]23c4c5ccc(O[C@@H]6O[C@H](C(=O)O)[C@@H](O)[C@H](O)[C@H]6O)c4O[C@H]2[C@@H](O)C=C[C@H]3[C@H]1C5 [M3G, Morphine-3 Glucuronide] | 0.0607 ± 0.0451 | 0.0431 ± 0.037 |  |  |  |  |  |
